According to US8106055B2, “Substituted amide compounds” (Gruenenthal GmbH, priority 2007, dated 2012):

Tests used:
[1] = biological target: T1, human bradykinin 1 receptor (B1R) (Homo sapiens, UniProt P46663); assay: Functional investigation on the human bradykinin 1 receptor (B1R), Ca2+ FLIPR assay in CHO K1 hB1R cells; type: cell-based; conditions: test substance 10 μM, Ca2+ FLIPR, CHO K1 hB1R cells; for B1R Ant. h [10 μM] % Inhibition: B1R antagonism human
T1 construct: expressed in transfected cells; host or cells: CHO K1 cells
T1 sequence (P46663 1-353): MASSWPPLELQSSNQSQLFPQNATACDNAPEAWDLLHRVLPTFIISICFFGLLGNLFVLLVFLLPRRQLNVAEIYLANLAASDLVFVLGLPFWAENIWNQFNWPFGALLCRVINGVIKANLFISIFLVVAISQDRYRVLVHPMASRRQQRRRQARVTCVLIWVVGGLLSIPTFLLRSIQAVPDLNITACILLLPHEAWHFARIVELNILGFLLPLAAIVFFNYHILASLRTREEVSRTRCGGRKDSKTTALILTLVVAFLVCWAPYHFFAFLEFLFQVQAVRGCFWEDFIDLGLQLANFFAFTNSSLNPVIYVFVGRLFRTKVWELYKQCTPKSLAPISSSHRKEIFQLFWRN
Summary of the method: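 Cells were dye-loaded with Fluo-4 plus probenecid, then test substances added and Ca2+ influx compared with agonist control for % activation. After 10-20 min, EC80 agonist (Lys-Des-Arg9-bradykinin human; Des-Arg9-bradykinin rat) was applied; suppression gave % inhibition and IC50 values.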

[2] = biological target: T2, serotonin (5-HT) reuptake (Rattus norvegicus, UniProt P31652); assay: Inhibition of serotonin (5HT) reuptake in synaptosomes from rat brain; type: biochemical; conditions: for 5-HT (inhibition of reuptake of serotonin, % inhibition): test concentration of 10 μM
T2 construct: synaptosomes are freshly isolated from areas of the rat brain; from tissue; host or cells: rat brain synaptosomes (P2 fraction)
T2 sequence (P31652 whole entry): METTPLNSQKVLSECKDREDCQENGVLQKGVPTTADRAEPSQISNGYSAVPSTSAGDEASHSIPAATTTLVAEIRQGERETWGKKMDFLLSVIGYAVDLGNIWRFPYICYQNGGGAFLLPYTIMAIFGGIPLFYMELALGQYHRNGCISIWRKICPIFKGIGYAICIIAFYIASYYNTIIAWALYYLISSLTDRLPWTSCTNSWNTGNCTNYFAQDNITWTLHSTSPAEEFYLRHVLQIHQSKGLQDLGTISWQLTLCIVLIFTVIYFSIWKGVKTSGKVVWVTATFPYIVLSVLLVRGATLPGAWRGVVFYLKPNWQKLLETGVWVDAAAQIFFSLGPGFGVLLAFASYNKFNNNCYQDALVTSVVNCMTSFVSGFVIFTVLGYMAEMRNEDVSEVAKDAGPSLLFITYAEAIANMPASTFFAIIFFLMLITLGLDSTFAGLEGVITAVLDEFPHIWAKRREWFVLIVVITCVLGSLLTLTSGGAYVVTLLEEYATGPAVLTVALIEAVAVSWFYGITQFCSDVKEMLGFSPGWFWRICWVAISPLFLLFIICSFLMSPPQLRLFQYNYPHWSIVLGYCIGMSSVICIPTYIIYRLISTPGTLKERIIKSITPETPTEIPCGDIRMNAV
Summary of the method: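 Freshly isolated rat brain synaptosomes (P2 fraction) used for 5-HT reuptake. Test compound at 10 μM, activity given as % inhibition.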

[3] = Table 2, test concentration 10 μM

| Structure (SMILES) | B1R Ant. h [10 μM] % Inhibition [1] [%] | 5-HT (inhibition of reuptake of serotonin, % inhibition) [2] [%] | 5-HT reuptake [2, 3] [% inhibition] | inhibition at 10 µM ([1]; CHO-K1, B1R antagonism human, read-out: B1R Ant. h [10 μM] % Inhibition) [%] | inhibition at 10 µM ([2]; Table 2, test concentration 10 μM, read-out: 5-HT reuptake) [%] |
| --- | --- | --- | --- | --- | --- |
| CN(C)C(c1ccc(Cl)cc1)C1CCC(CCNC(=O)COCCN(C)S(=O)(=O)c2ccc(F)cc2)CC1 (stereo not drawn) [Example 241] | 29 | 102 | – | – | – |
| CN(C)C(c1cccc(F)c1)C1CCC(NC(=O)COC2CCCN(S(=O)(=O)c3ccccc3)C2)CC1 (stereo not drawn) [Example 277] | 4 | 93 | – | – | – |
| CCN(CCOCC(=O)NCCC1CCC(C(c2cccc(F)c2)N(C)C)CC1)S(=O)(=O)c1c(C)cc(OC)c(C)c1C (stereo not drawn) [Example 209] | 64 | 94 | – | – | – |
| COc1ccc(S(=O)(=O)N2CCCCC2CCOCC(=O)NCC2CCC(C(c3cccc(F)c3)N(C)C)CC2)cc1 (stereo not drawn) [Example 203] | 42 | 93 | – | – | – |
| COc1cc(C)c(S(=O)(=O)N(C)CCOCC(=O)NC2CCC(C(c3cccc(F)c3)N(C)C)CC2)c(C)c1 (stereo not drawn) [Example 228] | 104 | 85 | – | – | – |
| CN(C)C(c1ccccc1)C1CCC(NC(=O)COCC2CCCN2S(=O)(=O)c2c(Cl)cc(Cl)cc2Cl)CC1 (stereo not drawn) [Example 612, N-[4-(Dimethylaminophenylmethyl)-cyclohexyl]-2-[1-(2,4,6-trichlorobenzenesulfonyl)-pyrrolidin-2-ylmethoxy]-acetamide] | 103 | – | 84 | – | – |
| Cc1cc(C)c(S(=O)(=O)N(C)CCOCC(=O)NC2CCC(C(c3cccs3)N(C)C)CC2)c(C)c1 (stereo not drawn) [Example 235] | 31 | 86 | – | – | – |
| COc1cc(C)c(S(=O)(=O)N(CCOCC(=O)NCC2CCC(C(c3ccccc3)N(C)C)CC2)Cc2ccccc2)c(C)c1C (stereo not drawn) [Example 201] | 76 | 89 | – | – | – |
| CN(C)C(c1cccc(F)c1)C1CCC(CNC(=O)COC2CCN(S(=O)(=O)c3ccc(Cl)cc3)C2)CC1 (stereo not drawn) [Example 258] | −12 | 84 | – | – | – |
| CN(C)C(c1cccc(F)c1)C1CCC(NC(=O)COCC2CCCN2S(=O)(=O)c2ccc(Cl)c(Cl)c2)CC1 (stereo not drawn) [Example 211] | 33 | 90 | – | – | – |
| CN(C)C(c1cccc(F)c1)C1CCC(CCNC(=O)COC2CCN(S(=O)(=O)c3ccc(Cl)cc3Cl)C2)CC1 (stereo not drawn) [Example 259] | 72 | 90 | – | – | – |
| CN(C)C(c1cccc(F)c1)C1CCC(CNC(=O)COC2CCN(S(=O)(=O)c3ccc(Cl)cc3Cl)C2)CC1 (stereo not drawn) [Example 225] | 51 | 85 | – | – | – |
| Cc1ccc(S(=O)(=O)N2CCC(OCC(=O)NCCC3CCC(C(c4cccs4)N(C)C)CC3)C2)cc1 (stereo not drawn) [Example 272] | 20 | 88 | – | – | – |
| COc1cc(C)c(S(=O)(=O)N2CCCC(OCC(=O)NCCC3CCC(C(c4cccc(F)c4)N(C)C)CC3)C2)c(C)c1C (stereo not drawn) [Example 221] | 21 | 95 | – | – | – |
| Cc1ccc(S(=O)(=O)N(C)CCOCC(=O)NCC2CCC(C(c3cccc(F)c3)N(C)C)CC2)cc1 (stereo not drawn) [Example 227] | 6 | 86 | – | – | – |
| COc1cc(C)c(S(=O)(=O)N2CCC(OCC(=O)NCCC3CCC(C(c4cccc(F)c4)N(C)C)CC3)CC2)c(C)c1C (stereo not drawn) [Example 232] | 17 | 98 | – | – | – |
| CN(C)C(c1cccs1)C1CCC(CCNC(=O)COC2CCCCC2N(C)S(=O)(=O)c2ccc(Cl)c(Cl)c2)CC1 (stereo not drawn) [Example 214] | −2 | 83 | – | – | – |
| CCN(CCOCC(=O)NCC1CCC(C(c2ccccc2)N(C)C)CC1)S(=O)(=O)c1c(C)cc(OC)c(C)c1C (stereo not drawn) [Example 231] | 9 | 83 | – | – | – |
| CN(C)C(c1cccs1)C1CCC(CNC(=O)COC2CCN(S(=O)(=O)c3ccccc3)CC2)CC1 (stereo not drawn) [Example 276] | −12 | 93 | – | – | – |
| COc1ccc(S(=O)(=O)N2CCCC2COCC(=O)NC2CCC(C(c3cccc(F)c3)N(C)C)CC2)cc1 (stereo not drawn) [Example 268] | 7 | 92 | – | – | – |

| Structure (SMILES) | B1R Ant. h [10 μM] % Inhibition [1] [%] | 5-HT (inhibition of reuptake of serotonin, % inhibition) [2] [%] | 5-HT reuptake [2, 3] [% inhibition] | inhibition at 10 µM ([1]; CHO-K1, B1R antagonism human, read-out: B1R Ant. h [10 μM] % Inhibition) [%] | inhibition at 10 µM ([2]; Table 2, test concentration 10 μM, read-out: 5-HT reuptake) [%] |
| --- | --- | --- | --- | --- | --- |
| COc1cc(C)c(S(=O)(=O)N(C)CCOCC(=O)NC2CCC(C(c3ccccc3)N(C)C)CC2)c(C)c1 (stereo not drawn) [Example 239] | 104 | 78 | – | – | – |
| CN(C)C(c1ccccc1)C1CCC(NC(=O)COCCN(C)S(=O)(=O)c2c(Cl)cc(Cl)cc2Cl)C1 (stereo not drawn) [Example 615, N-[3-(dimethylaminophenylmethyl)-cyclopentyl]-2-{2-[(2,4,6-trichlorobenzenesulfonyl)-methylamino]-ethoxy}-acetamide] | – | – | – | 95 | 81 |
| Cc1cc(C)c(S(=O)(=O)N2CCC(OCC(=O)NCCC3CCC(C(c4cccc(F)c4)N(C)C)CC3)C2)c(C)c1 (stereo not drawn) [Example 264] | 77 | 82 | – | – | – |
| CN(C)C(c1cccc(F)c1)C1CCC(NC(=O)COC2CCN(S(=O)(=O)c3ccc(Cl)cc3)C2)CC1 (stereo not drawn) [Example 204] | 2 | 86 | – | – | – |
| CN(C)C(c1cccc(F)c1)C1CCC(NC(=O)COCCN(C)S(=O)(=O)c2c(Cl)cc(Cl)cc2Cl)CC1 (stereo not drawn) [Example 208] | 89 | 93 | – | – | – |
| COc1ccc(S(=O)(=O)N(C)CCOCC(=O)NC2CCC(C(c3cccc(F)c3)N(C)C)CC2)cc1 (stereo not drawn) [Example 250] | 12 | 84 | – | – | – |
| CN(C)C(c1cccc(F)c1)C1CCC(NC(=O)COCCN(C)S(=O)(=O)c2ccc(OC(F)(F)F)cc2)CC1 (stereo not drawn) [Example 246] | 10 | 91 | – | – | – |
| CN(C)C(c1ccc(F)cc1)C1CCC(CNC(=O)COCCN(C)S(=O)(=O)c2ccc(Cl)cc2Cl)CC1 (stereo not drawn) [Example 249] | 104 | 95 | – | – | – |
| COc1cc(C)c(S(=O)(=O)N(CCOCC(=O)NCCC2CCC(C(c3cccs3)N(C)C)CC2)Cc2ccccc2)c(C)c1C (stereo not drawn) [Example 254] | 27 | 94 | – | – | – |
| COc1cc(C)c(S(=O)(=O)N2CCN(CCOCC(=O)NC3CCC(C(c4ccc(F)cc4)N(C)C)CC3)CC2)c(C)c1C (stereo not drawn) [Example 222] | 54 | 92 | – | – | – |
| COc1ccc(S(=O)(=O)N2CCCCC2COCC(=O)NC2CCC(C(c3cccc(F)c3)N(C)C)CC2)cc1 (stereo not drawn) [Example 255] | 37 | 91 | – | – | – |
| CN(C)C(c1ccccc1)C1CCC(NC(=O)COCC2CCCN2S(=O)(=O)c2c(Cl)cc(Cl)cc2Cl)CC1 (stereo not drawn) [Example 611, N-[4-(Dimethylaminophenylmethyl)-cyclohexyl]-2-[1-(2,4,6-trichlorobenzenesulfonyl)-pyrrolidin-2-ylmethoxy]-acetamide] | 97 | – | 84 | – | – |
| CN(C)C(c1cccc(F)c1)C1CCC(NC(=O)COCCN(C)S(=O)(=O)c2ccc(Cl)cc2Cl)CC1 (stereo not drawn) [Example 217] | 85 | 85 | – | – | – |
| COc1ccc(S(=O)(=O)N2CCCC2COCC(=O)NCCC2CCC(C(c3cccc(F)c3)N(C)C)CC2)cc1 (stereo not drawn) [Example 224] | 34 | 97 | – | – | – |
| CN(C)C(c1ccccc1)C1CCC(CNC(=O)COC2CCN(S(=O)(=O)c3ccc(F)cc3)C2)CC1 (stereo not drawn) [Example 219] | −1 | 96 | – | – | – |
| COc1ccc(S(=O)(=O)N2CCCCC2COCC(=O)NC2CCC(C(c3cccs3)N(C)C)CC2)cc1OC (stereo not drawn) [Example 261] | −28 | 85 | – | – | – |
| COc1ccc(S(=O)(=O)N2CCCCC2CCOCC(=O)NC2CCC(C(c3ccc(F)cc3)N(C)C)CC2)cc1 (stereo not drawn) [Example 212] | 49 | 92 | – | – | – |
| COc1ccc(S(=O)(=O)N2Cc3ccccc3CC2COCC(=O)NC2CCC(C(c3ccc(F)cc3)N(C)C)CC2)cc1 (stereo not drawn) [Example 234] | 50 | 95 | – | – | – |
| COc1cc(C)c(S(=O)(=O)N2CCC(OCC(=O)NCC3CCC(C(c4cccc(F)c4)N(C)C)CC3)C2)c(C)c1 (stereo not drawn) [Example 265] | 93 | 95 | – | – | – |
